According to patent US7662565B2, “Approaches to identify less harmful tobacco and tobacco products” (Vector Tobacco, Inc., priority 2004, dated 2010):
pIC50: −log10 of the molar value. Like-named read-outs stand apart in the source and are kept apart here.

Experiments:
A549 cells [1] = assay: γH2AX DNA damage assay, A549 cells exposed to whole smoke or vapor phase of smoke (Example 2); format: cell-based, human; details: for suppression of DNA damage (γH2AX): 25 mM NAC present during exposure; for effect of NAC on DNA damage: 25 mM NAC during exposure (FIG. 10); for pIC50: Homo sapiens, from graph FIG. 11, read-out: concentration of NAC that reduced DNA damage by 50%
NHBE cells = assay: γH2AX DNA damage assay, NHBE cells exposed to whole smoke or vapor phase of smoke (Example 2); format: cell-based, human
Excerpt: In order to compare DNA damage as a function of the cell's position in the cell cycle, γH2AX values were normalized to DNA content since histone content doubles as cells proceed from G1 to G2 phase. Thus, in order to determine any change in histone H2AX phosphorylation independent of changes in histone/DNA content or DNA ploidy, the values for S and G2M phase populations, gated according to DNA content, were multiplied by 0.75 and 0.5, respectively. In instances where “normalized” values of γH2AX are presented, these values were obtained by subtracting the mean values of each cell cycle population (or the total population) from the mean of the mock-treated population whose γH2AX values represent “scheduled” γH2AX expression. In all instances, the values presented represent the mean γH2AX fluorescence of the population; typically 3-5×10^3 cells were analyzed for each condition.
The response of NHBE cells to whole smoke from IM 16 cigarettes was more or less identical to that observed for A549 cells (FIG. 7C). The one difference between the two cell lines was that S phase cells in NHBE cultures always expressed higher “scheduled” amounts of γH2AX.
In the next series of experiments, it was determined that DNA damage caused by whole smoke can be mitigated by the presence of NAC. Using a standardized set of conditions (20 min of exposure followed by a 1 h recovery), DNA damage caused by whole smoke from IM 16 cigarettes was assayed in both A549 and NHBE cells. NAC at a concentration of 25 mM was either absent or present during exposure and absent or present during the 1 h recovery time. In this instance, the background or “scheduled” γH2AX expression observed in Mock-treated cells was subtracted from each measurement. The remaining fluorescence should be indicative of the level of DNA DSBs under each set of conditions.
The vapor phase from IM 16 CS cause only about 30% (29.7%) of the damage caused by whole smoke whereas the vapor phase of smoke from Quest 1® caused 97% less damage than whole smoke from IM 16 cigarettes.

A549 cells [2] = assay: Clonogenic survival assay (Example 3); format: cell-based
Procedure: A clonogenic survival assay was used to study the ability of tobaccos and tobacco products to impact the proliferation of cells. The experiment involves four major steps: (1) inoculate cells into culture dishes and incubate for 24-48 hours; (2) upon reaching the logarithmic phase of growth, the treatment is applied; the treatment in this case is freshly prepared and diluted CS for increasing periods of time; (3) the cells are then allowed to recover for a set number of hours (up to 24), then the cells are trypsinized, replated at specific dilutions, and allowed to continue growing for 5-7 days; the number of cells used depends largely on the plating efficiency of the cell line and must be determined empirically prior to the experiment; and (4) at the conclusion of the experiment, the cells are fixed, stained, and counted. The primary measure is to count surviving colonies of 25-50 cells which is presented as the percentage of cells which survived the treatment. A graphical representation of survival versus exposure time to CS is then generated. The surviving fraction is determined by dividing the number of colonies in the dish by the number of the colonies in the control (non-treated) dish.
A549 cells were exposed to smoke as previously described (see above). Following smoke exposure the medium is aspirated and the cells rinsed refed with 37° C. BEGM and placed in a 37° C., 5% CO2 humidified incubator for two to three hours. The cells are harvested by trypsinization with trypsin-EDTA (0.25% trypsin-0.38 mg/ml EDTA, Invitrogen). Cells are centrifuged at 260×g for 8 min. Cell pellets are resuspended in 1 ml of Ham's F-12K medium, 10% FBS (complete medium) per pellet and counted. Cells are serially diluted so that the mock treated have ˜65 cells per well and smoke treated have ˜300 cells per well when seeded onto 96-well flat bottom tissue culture plates; one plate per condition. The plates are incubated for five days in a 37° C., 5% CO2 humidified incubator. The colonies of cells are fixed with 5% formaldehyde/PBS and colored with 0.8% crystal violet solution for visualization. The colonies are counted with the aid of a macroscopic dissecting microscope. The cloning efficiency results are expressed in relation to the mock exposed cells. Unless otherwise indicated, each bar in the graphs represents three replicate data points per experiment.
In yet another series of experiments, the effect of NAC on cell death caused by the VAPOR phase of smoke from different cigarettes was evaluated. A549 cells were exposed to the vapor phase of smoke for 20 min by inserting a Cambridge filter pad immediately after the cigarette in the smoking apparatus so as to filter out the particulate matter (“tar”) and leave only the vapor phase. […]

tobacco leaf disks = assay: Norflurazone resistance of tobacco leaf disks transformed with PDSM genes; details: Agrobacterium transformation of tobacco leaf disks; various norflurazone concentrations
Procedure: Other aspects of the invention concern the discovery of several mutants of the phytoene desaturase gene that confer resistance to the herbicide norflurazone (e.g., SEQ. ID. Nos.10, 11, and 12). These herbicide resistance genes were used as selectable markers in the transformations above. Typically, the selection was accomplished by introducing the transformed plant tissue to the norflurazone (e.g., 0.005 uM-0.1 uM conc.). That is, the concentration of norflurazone that can be used to select positive transformants containing a norflurazone resistance gene, as described herein can be at least, less than, greater than, or equal to 0.005, 0.006, 0.007, 0.008, 0.009, 0.01, 0.02, 0.03, 0.04, 0.05, 0.06, 0.07, 0.08, 0.09, 0.1, 0.2, 0.3, 0.4, 0.5, 0.6, 0.7, 0.8, 0.9, or 1.0 uM. Preferably, less than or equal to 0.05 uM concentration of norflurazone is used when selecting transformants with Flue-cured tobacco and less than or equal to 0.0125 uM concentration norflurazone is used when selecting transformants with Burley tobacco. As the plantlet develops, selection was accomplished by differentiating the green shoots (positive transformants) from the yellow or white shoots (negative transformants). Once selection was made, the herbicide was removed and the plantlet was allowed to develop in the greenhouse.
The norflurazone resistant phytoene desaturase mutants (PDSM-1, PDSM-2, and PDSM-3) were generated by site-directed mutagenesis of particular regions of the gene believed to be involved in binding of the herbicide. Constructs carrying the various PDSM genes were then transferred to tobacco leaf disks by conventional Agrobacterium transformation and the resistance to norflurazone was analyzed at various concentrations. After several iterations, the mutants described as SEQ. ID. […] Accordingly, aspects of the invention concern the PDSM genes described herein, their use in plants as selectable markers to identify plant cells that contain a transformed gene, whether in tissue culture or in the field, and methods of identifying new PDSM genes that confer norflurazone resistance.

CC(=O)N[C@@H](CS)C(=O)O [NAC, N-acetyl-L-cysteine]
effect of NAC on vapor phase damage (A549 cells [1]; A549, each cell cycle phase, vapor phase from Quest 1 and Quest 3): reduced damage to background levels | suppression of DNA damage (γH2AX) (A549 cells [1]; A549, entire population, IM 16 whole smoke 20 min, 1 h recovery): greater than 80% | suppression of γH2AX (A549 cells [1]; A549, entire population, IM 16 whole smoke, 25 mM NAC during exposure and during 1 h recovery): 90% | mitigation of DNA damage (A549 cells [1]; A549, IM 16 whole smoke, 25 mM NAC applied to the media following exposure only): did nothing to mitigate the DNA damage | effect of NAC on DNA damage (A549 cells [1]; A549, smoke from IM 16): dramatically reduced the effects of smoke | effect of NAC on DNA damage (A549 cells [1]; A549, smoke from Omni): reduced the damage to near background levels | effect of NAC on DNA damage (A549 cells [1]; A549, smoke from Quest 3): reduced to background levels | reduction of γH2AX by NAC (A549 cells [1]; A549, vapor phase of smoke from IM 16, NAC during exposure): 93.2% | reduction of γH2AX by NAC (A549 cells [1]; A549, vapor phase of smoke from Quest 1, NAC during exposure): 98.9% | reduction of γH2AX by NAC (A549 cells [1]; A549, vapor phase of smoke from Quest 3, NAC during exposure): 100% | reduction of γH2AX by NAC (A549 cells [1]; A549, whole smoke from IM 16, 25 mM NAC during exposure): 89.1% | suppression of DNA damage (γH2AX) (A549 cells [1]; A549 G1 cells, IM 16 whole smoke): 91% | reduction of damage by NAC (A549 cells [1]; A549 G1 phase, vapor phase of smoke from IM 16): 98.5% | suppression of DNA damage (γH2AX) (A549 cells [1]; A549 G2M cells, IM 16 whole smoke): 88% | reduction of damage by NAC (A549 cells [1]; A549 G2M phase, vapor phase of smoke from IM 16): 92.2% | suppression of DNA damage (γH2AX) (A549 cells [1]; A549 S phase cells, IM 16 whole smoke): 82% | reduction of damage by NAC (A549 cells [1]; A549 S phase, vapor phase of smoke from IM 16): 89.0% | concentration dependence of NAC protection (A549 cells [1]; G1 and G2M A549 cells, IM 16 whole smoke 20 min, 1 h recovery): began to decrease when as little as 1 mM NAC was present | pIC50 (A549 cells [1]; A549, G1 phase A549 cells, IM 16 whole smoke): ~2.35 | pIC50 (A549 cells [1]; A549, G2M phase A549 cells, IM 16 whole smoke): ~2.12 | pIC50 (A549 cells [1]; A549, S phase A549 cells, IM 16 whole smoke): ~2.59 | concentration dependence of NAC protection (A549 cells [1]; S phase A549 cells, IM 16 whole smoke 20 min, 1 h recovery): unaffected by the presence of NAC up to a concentration of 5 mM | decrease of DNA damage by NAC (NHBE cells; NHBE G1 cells, IM 16 whole smoke, 25 mM NAC present during exposure): ~69% | decrease of DNA damage by NAC (NHBE cells; NHBE G2M cells, IM 16 whole smoke, 25 mM NAC present during exposure): about 65% | protection by NAC (NHBE cells; NHBE S phase cells, IM 16 whole smoke, 25 mM NAC present during exposure): afforded no protection | protection by NAC (NHBE cells; NHBE, IM 16 whole smoke, 25 mM NAC during exposure and recovery): small degree of additional protection | effect of NAC on level of DNA damage (NHBE cells; NHBE, IM 16 whole smoke, 25 mM NAC only during recovery): little effect on the level of DNA damage | effect of NAC on vapor phase DNA damage (NHBE cells; NHBE, vapor phase of IM 16, Quest 1 or Quest 3): abolished virtually all DNA damage | effect of NAC on vapor phase damage (NHBE cells; NHBE, vapor phase of smoke from IM 16 (FIG. 13)): to background levels or below | effect of NAC on vapor phase damage (NHBE cells; NHBE, vapor phase of smoke from Quest cigarettes): inhibited | reduction of γH2AX by NAC (NHBE cells; NHBE, whole smoke from IM 16, NAC during exposure): 77.9% | protection of cell viability by NAC (A549 cells [2]; 20 min IM16 smoke, various concentrations of NAC (FIG. 16)): protected the viability of the cells in a dose-dependent manner | protection of cell viability by NAC (A549 cells [2]; 20 min Omni or IM16 smoke, 25 mM NAC): partially protected | protection of cell viability by NAC (A549 cells [2]; 20 min Quest 3 smoke, 25 mM NAC): completely protected | protection of cell viability by NAC (A549 cells [2]; all vapor phase exposures, 25 mM NAC): protected the cells against viability loss

PDSM-1: Arabidopsis phytoene desaturase mutant gene, T to G at position 1478 (Valine to Glycine at residue 493)
resistance to norflurazone (tobacco leaf disks): confer resistance to norflurazone

PDSM-2: Arabidopsis phytoene desaturase mutant gene, G to C at position 863 (Arginine to Proline at residue 288)
resistance to norflurazone (tobacco leaf disks): confer resistance to norflurazone

PDSM-3: Arabidopsis phytoene desaturase mutant gene, T to C at position 1226 (Leucine to Proline at residue 409)
resistance to norflurazone (tobacco leaf disks): confer resistance to norflurazone
